Experimental data taken from patent publication US8927717B1, “Thiochromeno[2,3-c]quinolin-12-one derivatives, preparation method and application thereof” (National Defense Medical Center, priority 2014, dated 2015).

Legend:
60 cancer cell lines = assay: NCI 60-cell screen, SRB, whole panel (mean, delta, range); format: cell-based; details: 10^−5 molar, 48 hours, SRB; for Growth percent, Delta: delta over the cell panel; for Growth percent, Range: range over the cell panel

Row | melting point | Compound | Growth percent, Delta (60 cancer cell lines) [%] | Growth percent, Range (60 cancer cell lines) [%]
1 | 196 to 198 °C | CCN1CCN(c2nc3ccccc3c3c(=O)c4cc(Cl)ccc4sc23)CC1 [Compound 9, 10-Chloro-6-(4-ethylpiperazin-1-yl)-12H-thiochromeno[2,3-c]quinolin-12-one] | – | –
2 | 219 to 220 °C | O=c1c2cc(Cl)ccc2sc2c(N3CCSCC3)nc3ccccc3c12 [Compound 14, 10-Chloro-6-thiomorpholino-12H-thiochromeno[2,3-c]quinolin-12-one] | – | –
3 | 187 to 188 °C | O=c1c2cc(Cl)ccc2sc2c(N3CCCCC3)nc3ccccc3c12 [Compound 15, 10-Chloro-6-(piperidin-1-yl)-12H-thiochromeno[2,3-c]quinolin-12-one] | – | –
4 | 224 to 225 °C | O=c1c2cc(Cl)ccc2sc2c(N3CCC(O)CC3)nc3ccccc3c12 [Compound 16, 10-Chloro-6-(4-hydroxypiperidin-1-yl)-12H-thiochromeno[2,3-c]quinolin-12-one] | – | –
5 | 184 to 185 °C | O=c1c2cc(Cl)ccc2sc2c(N3CCC(Cc4ccccc4)CC3)nc3ccccc3c12 [Compound 17, 6-(4-Benzylpiperidin-1-yl)-10-chloro-12H-thiochromeno[2,3-c]quinolin-12-one] | – | –
6 | 187 to 189 °C | O=c1c2cc(Cl)ccc2sc2c(N3CCC(N4CCCCC4)CC3)nc3ccccc3c12 [Compound 18, 6-([1,4′-Bipiperidin]-1′-yl)-10-chloro-12H-thiochromeno[2,3-c]quinolin-12-one] | – | –
7 | 164 to 165 °C | O=c1c2cc(Cl)ccc2sc2c(N3CCC(CCCC4CCNCC4)CC3)nc3ccccc3c12 [Compound 19, 10-Chloro-6-(4-(3-(piperidin-4-yl)propyl)piperidin-1-yl)-12H-thiochromeno[2,3-c]quinolin-12-one] | – | –
8 | 170 to 171 °C | O=c1c2cc(Cl)ccc2sc2c(N3CCCC3)nc3ccccc3c12 [Compound 20, 10-Chloro-6-(pyrrolidin-1-yl)-12H-thiochromeno[2,3-c]quinolin-12-one] | – | –
9 | 258 to 261 °C | O=C1CCCCN1c1nc2ccccc2c2c(=O)c3cc(Cl)ccc3sc12 [Compound 21, 10-chloro-6-(2-oxopiperidin-1-yl)-12H-thiochromeno[2,3-c]quinolin-12-one] | – | –
10 | 178 to 179 °C | CCCNc1nc2ccccc2c2c(=O)c3cc(Cl)ccc3sc12 [Compound N3, 10-Chloro-6-propylamino-12H-thiochromeno[2,3-c]quinolin-12-one] | – | –
11 | 147 to 149 °C | CCCCNc1nc2ccccc2c2c(=O)c3cc(Cl)ccc3sc12 [Compound N4, 6-(Butylamino)-10-chloro-12H-thiochromeno[2,3-c]quinolin-12-one] | – | –
12 | 159 to 160 °C | CC(C)CNc1nc2ccccc2c2c(=O)c3cc(Cl)ccc3sc12 [Compound N5, 10-Chloro-6-isobutylamino-12H-thiochromeno[2,3-c]quinolin-12-one] | – | –
13 | 251 to 252 °C | O=c1c2cc(Cl)ccc2sc2c(NC3Cc4ccccc4C3)nc3ccccc3c12 [Compound N20, 10-Chloro-6-((2,3-dihydro-1H-inden-2-yl)amino)-12H-thiochromeno[2,3-c]quinolin-12-one] | – | –
14 | 194 to 196 °C | O=c1c2cc(Cl)ccc2sc2c(NC3CCN(Cc4ccccc4)CC3)nc3ccccc3c12 [Compound N22, 6-((1-Benzylpiperidin-4-yl)amino)-10-chloro-12H-thiochromeno[2,3-c]quinolin-12-one] | – | –
15 | 178 to 180 °C | O=c1c2cc(Cl)ccc2sc2c(NCc3cccs3)nc3ccccc3c12 [Compound N23, 10-Chloro-6-((thiophen-2-ylmethyl)amino)-12H-thiochromeno[2,3-c]quinolin-12-one] | – | –
16 | 165 to 166 °C | O=c1c2cc(Cl)ccc2sc2c(NCC3CCCCC3)nc3ccccc3c12 [Compound N24, 10-Chloro-6-((cyclohexylmethyl)amino)-12H-thiochromeno[2,3-c]quinolin-12-one] | – | –
17 | 187 to 189 °C | O=c1c2cc(Cl)ccc2sc2c(NCc3ccccn3)nc3ccccc3c12 [Compound N26, 10-Chloro-6-((pyridin-2-ylmethyl)amino)-12H-thiochromeno[2,3-c]quinolin-12-one] | – | –
18 | 223 to 224 °C | COc1ccccc1CNc1nc2ccccc2c2c(=O)c3cc(Cl)ccc3sc12 [Compound N28, 10-Chloro-6-((2-methoxybenzyl)amino)-12H-thiochromeno[2,3-c]quinolin-12-one] | – | –
19 | 251 to 252 °C | COc1ccc(CNc2nc3ccccc3c3c(=O)c4cc(Cl)ccc4sc23)cc1OC [Compound N29, 10-Chloro-6-((3,4-dimethoxybenzyl)amino)-12H-thiochromeno[2,3-c]quinolin-12-one] | – | –
20 | 370 °C (dec.) | NC(N)=Nc1nc2ccccc2c2c(=O)c3cc(Cl)ccc3sc12 [Compound N33, 2-(10-Chloro-12-oxo-12H-thiochromeno[2,3-c]quinolin-6-yl)guanidine] | – | –
21 | 180 to 181 °C | O=c1c2cc(Cl)ccc2sc2c(NN3CCCCC3)nc3ccccc3c12 [Compound N34, 10-Chloro-6-(piperidin-1-ylamino)-12H-thiochromeno[2,3-c]quinolin-12-one] | – | –

Row | Compound | melting point | Growth percent, Delta (60 cancer cell lines) [%] | Growth percent, Range (60 cancer cell lines) [%]
22 | O=C(O)c1c(Sc2ccc(Cl)cc2)c(O)nc2ccccc12 [Compound 2, 3-((4-Chlorophenyl)thio)-2-hydroxyquinoline-4-carboxylic acid] | 306 to 308 °C | 33.20 | 55.29
23 | O=c1c2cc(Cl)ccc2sc2c(O)nc3ccccc3c12 [Compound 4, 10-Chloro-6-hydroxy-12H-thiochromeno[2,3-c]quinolin-12-one] | > 410 °C | 30.54 | 50.31
24 | CN(C)c1nc2ccccc2c2c(=O)c3cc(Cl)ccc3sc12 [Compound 6, 10-Chloro-6-dimethylamino-12H-thiochromeno[2,3-c]quinolin-12-one] | 194 to 195 °C | 65.30 | 93.93
25 | CN1CCN(c2nc3ccccc3c3c(=O)c4cc(Cl)ccc4sc23)CC1 [Compound 8, 10-Chloro-6-(4-methylpiperazin-1-yl)-12H-thiochromeno[2,3-c]quinolin-12-one] | 212 to 214 °C | 68.64 | 92.74
26 | O=c1c2cc(Cl)ccc2sc2c(N3CCN(CCO)CC3)nc3ccccc3c12 [Compound 10, 10-Chloro-6-(4-(2-hydroxyethyl)piperazin-1-yl)-12H-thiochromeno[2,3-c]quinolin-12one] | 211 to 213 °C | 48.59 | 83.73
27 | O=c1c2cc(Cl)ccc2sc2c(N3CCN(c4ccccc4)CC3)nc3ccccc3c12 [Compound 12, 10-Chloro-6-(4-phenylpiperazin-1-yl)-12H-thiochromeno[2,3-c]quinolin-12-one] | 236 to 237 °C | 35.45 | 60.10
28 | O=c1c2cc(Cl)ccc2sc2c(N3CCOCC3)nc3ccccc3c12 [Compound 13, 10-Chloro-6-morpholino-12H-thiochromeno[2,3-c]quinolin-12-one] | 217 to 218 °C | 50.85 | 79.17
